The text below walks through data of ChEMBL document CHEMBL5634108, “The latest perspectives of small molecules FMS kinase inhibitors” (Eur J Med Chem, 2023).

Assay [1] concerns the target T1, Macrophage colony-stimulating factor 1 receptor (Homo sapiens, UniProt P07333). Briefly: Inhibition of CSF1R (unknown origin).
Assay [2] addresses T2, Vascular endothelial growth factor receptor 2 (Homo sapiens, UniProt P35968). Description: Inhibition of KDR (unknown origin).
Assay [3] has as its target T3, Aurora kinase C (Homo sapiens, UniProt Q9UQB9).
T3 sequence (Q9UQB9 whole entry): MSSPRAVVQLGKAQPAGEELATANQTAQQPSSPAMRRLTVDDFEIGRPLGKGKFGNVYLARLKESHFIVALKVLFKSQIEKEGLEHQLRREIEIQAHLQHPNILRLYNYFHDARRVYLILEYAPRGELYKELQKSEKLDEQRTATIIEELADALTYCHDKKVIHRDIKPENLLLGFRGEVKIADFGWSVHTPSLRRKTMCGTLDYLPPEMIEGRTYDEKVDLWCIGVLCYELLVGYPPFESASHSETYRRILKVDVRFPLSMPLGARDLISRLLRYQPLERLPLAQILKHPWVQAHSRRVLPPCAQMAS
Briefly: Inhibition of AURKC (unknown origin).

The target of assay [4] is T4, Mast/stem cell growth factor receptor Kit (Homo sapiens, UniProt P10721). Description: Inhibition of KIT (unknown origin) using ATP as substrate incubated for 1 hrs by ELISA. A general note: An ELISA detects its analyte on a solid surface through an enzyme-linked reagent.
T4 sequence (P10721 whole entry): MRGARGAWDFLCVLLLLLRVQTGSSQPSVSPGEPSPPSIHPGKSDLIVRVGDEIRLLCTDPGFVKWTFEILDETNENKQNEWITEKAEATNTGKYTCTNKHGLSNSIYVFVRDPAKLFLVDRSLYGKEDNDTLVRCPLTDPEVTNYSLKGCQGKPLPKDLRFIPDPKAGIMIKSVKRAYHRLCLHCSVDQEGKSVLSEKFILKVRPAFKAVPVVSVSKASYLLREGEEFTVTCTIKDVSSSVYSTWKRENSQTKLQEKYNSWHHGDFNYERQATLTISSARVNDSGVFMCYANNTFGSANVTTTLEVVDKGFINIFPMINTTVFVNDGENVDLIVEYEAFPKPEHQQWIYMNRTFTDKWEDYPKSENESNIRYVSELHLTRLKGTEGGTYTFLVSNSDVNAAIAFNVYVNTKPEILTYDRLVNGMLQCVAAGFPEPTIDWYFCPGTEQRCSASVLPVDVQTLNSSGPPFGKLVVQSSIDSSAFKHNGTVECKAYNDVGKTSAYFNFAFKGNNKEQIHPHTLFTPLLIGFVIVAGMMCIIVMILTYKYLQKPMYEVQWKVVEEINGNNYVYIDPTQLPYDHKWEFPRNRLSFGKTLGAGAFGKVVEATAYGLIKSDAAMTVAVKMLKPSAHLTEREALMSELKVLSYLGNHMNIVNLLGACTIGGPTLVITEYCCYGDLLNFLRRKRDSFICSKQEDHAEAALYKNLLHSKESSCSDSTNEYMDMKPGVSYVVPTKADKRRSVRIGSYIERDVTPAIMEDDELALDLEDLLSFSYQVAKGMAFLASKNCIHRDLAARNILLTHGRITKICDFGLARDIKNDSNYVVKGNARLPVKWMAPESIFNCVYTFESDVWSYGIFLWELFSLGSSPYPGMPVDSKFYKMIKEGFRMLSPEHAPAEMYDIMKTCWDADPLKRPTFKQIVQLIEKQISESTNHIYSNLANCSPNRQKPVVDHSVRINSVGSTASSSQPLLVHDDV
In assay [5] the target is Receptor-type tyrosine-protein kinase FLT3 (Homo sapiens, UniProt P36888, ITD). Description: Inhibition of FLT3 ITD mutant (unknown origin) preincubated for 60 mins followed by ATP addition and measured after 1 hr by ADP-Glo assay. Background: ADP-Glo first removes unused ATP, then detects ADP through luciferase.
The target of assay [6] is T3, Aurora kinase C. Briefly: Inhibition of human AURKC by discoverX kinome scan assay.
Assay [7] deals with Vascular endothelial growth factor receptor 1 (Homo sapiens, UniProt P17948). Description: Inhibition of FLT1 (unknown origin).
For assay [8], the target named is T5, Tyrosine-protein kinase Lck (Homo sapiens, UniProt P06239). Briefly: Inhibition of LCK (unknown origin) using TK as substrate incubated for 30 mins by HTRF assay.
Target sequence in this assay (P06239 whole entry): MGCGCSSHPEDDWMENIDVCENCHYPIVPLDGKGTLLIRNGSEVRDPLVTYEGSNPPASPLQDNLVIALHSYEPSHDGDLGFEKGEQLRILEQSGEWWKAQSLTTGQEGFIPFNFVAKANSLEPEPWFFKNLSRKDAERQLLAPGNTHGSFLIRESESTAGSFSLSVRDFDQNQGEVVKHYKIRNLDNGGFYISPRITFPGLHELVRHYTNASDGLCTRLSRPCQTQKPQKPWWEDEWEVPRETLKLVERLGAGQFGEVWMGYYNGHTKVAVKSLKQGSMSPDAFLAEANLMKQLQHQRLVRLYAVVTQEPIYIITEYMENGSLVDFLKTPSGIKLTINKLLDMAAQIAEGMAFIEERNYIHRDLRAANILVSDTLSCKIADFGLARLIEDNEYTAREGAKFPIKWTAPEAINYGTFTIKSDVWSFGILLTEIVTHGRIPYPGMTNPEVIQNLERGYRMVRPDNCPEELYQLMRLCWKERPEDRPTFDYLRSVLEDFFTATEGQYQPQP
In assay [9] the target is T2, Vascular endothelial growth factor receptor 2. Briefly: Inhibition of VEGFR-2 (unknown origin) in presence of ATP incubated for 45 mins by ELISA method.
The target of assay [10] is T6, NT-3 growth factor receptor (Homo sapiens, UniProt Q16288). Briefly: Inhibition of TRKC (unknown origin).
T6 sequence (Q16288 whole entry): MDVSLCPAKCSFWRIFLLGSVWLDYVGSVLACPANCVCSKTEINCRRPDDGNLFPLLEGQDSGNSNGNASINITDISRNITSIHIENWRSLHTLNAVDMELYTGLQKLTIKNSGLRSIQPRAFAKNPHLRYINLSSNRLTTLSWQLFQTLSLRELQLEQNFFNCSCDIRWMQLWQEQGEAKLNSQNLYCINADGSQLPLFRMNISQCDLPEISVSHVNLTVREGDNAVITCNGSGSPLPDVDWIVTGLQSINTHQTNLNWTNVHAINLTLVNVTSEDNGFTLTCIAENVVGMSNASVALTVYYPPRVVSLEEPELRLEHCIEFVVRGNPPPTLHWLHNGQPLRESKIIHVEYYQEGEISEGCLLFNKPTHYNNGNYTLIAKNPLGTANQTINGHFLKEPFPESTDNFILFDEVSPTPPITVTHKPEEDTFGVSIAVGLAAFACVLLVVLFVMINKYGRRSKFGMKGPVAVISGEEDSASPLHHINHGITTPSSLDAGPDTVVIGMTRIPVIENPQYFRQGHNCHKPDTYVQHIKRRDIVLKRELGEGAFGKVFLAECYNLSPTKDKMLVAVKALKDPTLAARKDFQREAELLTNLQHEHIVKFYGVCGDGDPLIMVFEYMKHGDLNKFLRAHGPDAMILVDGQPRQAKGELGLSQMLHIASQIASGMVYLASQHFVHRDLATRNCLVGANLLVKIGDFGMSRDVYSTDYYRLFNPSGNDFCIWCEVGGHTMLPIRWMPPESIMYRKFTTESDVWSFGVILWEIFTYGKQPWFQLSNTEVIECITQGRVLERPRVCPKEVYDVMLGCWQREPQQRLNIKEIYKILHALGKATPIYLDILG
Assay [11] deals with T6, NT-3 growth factor receptor. Description: Inhibition of TRKC (unknown origin) by TR-FRET assay.
Assay [12] addresses T7, Receptor-type tyrosine-protein kinase FLT3 (Homo sapiens, UniProt P36888).
T7 sequence (P36888 whole entry): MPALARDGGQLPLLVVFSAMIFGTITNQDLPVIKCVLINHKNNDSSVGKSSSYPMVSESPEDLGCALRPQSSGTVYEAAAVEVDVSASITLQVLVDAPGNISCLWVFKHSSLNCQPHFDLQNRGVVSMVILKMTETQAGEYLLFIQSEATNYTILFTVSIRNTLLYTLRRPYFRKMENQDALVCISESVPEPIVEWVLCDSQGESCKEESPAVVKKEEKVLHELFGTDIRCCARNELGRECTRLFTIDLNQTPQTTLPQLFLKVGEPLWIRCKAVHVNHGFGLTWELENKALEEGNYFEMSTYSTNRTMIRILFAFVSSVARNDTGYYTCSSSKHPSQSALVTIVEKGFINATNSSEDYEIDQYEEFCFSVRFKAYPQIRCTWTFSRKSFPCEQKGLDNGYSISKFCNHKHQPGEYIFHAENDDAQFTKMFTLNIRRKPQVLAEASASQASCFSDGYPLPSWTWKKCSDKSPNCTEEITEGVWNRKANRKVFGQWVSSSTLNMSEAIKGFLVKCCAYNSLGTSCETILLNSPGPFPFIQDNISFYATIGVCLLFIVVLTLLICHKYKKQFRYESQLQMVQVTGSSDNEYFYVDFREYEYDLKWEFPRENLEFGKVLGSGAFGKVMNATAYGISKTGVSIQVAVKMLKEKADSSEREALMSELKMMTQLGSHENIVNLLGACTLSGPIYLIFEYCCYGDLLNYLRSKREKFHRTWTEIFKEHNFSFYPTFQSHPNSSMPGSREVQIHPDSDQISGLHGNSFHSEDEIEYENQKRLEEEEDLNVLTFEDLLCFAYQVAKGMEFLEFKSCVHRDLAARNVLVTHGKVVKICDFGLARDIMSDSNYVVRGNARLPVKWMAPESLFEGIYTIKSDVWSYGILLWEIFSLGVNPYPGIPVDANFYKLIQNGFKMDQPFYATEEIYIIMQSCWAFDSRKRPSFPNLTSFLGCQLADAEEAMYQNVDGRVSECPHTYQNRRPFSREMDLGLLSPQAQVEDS
Description: Inhibition of FLT3 (unknown origin) by enzymatic assay.

Assay [13] addresses Receptor-type tyrosine-protein kinase FLT3 (Homo sapiens) (UniProt P36888). Description: Inhibition of FLT3 (unknown origin) at 10 uM by biochemical Hotspot kinase assay relative to control.
Assay [14] shares this target. Briefly: Inhibition of FLT3 (unknown origin) at 10 uM relative to control.
In assay [15] the target is T4, Mast/stem cell growth factor receptor Kit. Description: Inhibition of c-Kit (unknown origin) in presence of ATP.
Assay [16] addresses T8, Tyrosine-protein kinase receptor UFO (Homo sapiens, UniProt P30530).
T8 sequence (P30530 whole entry): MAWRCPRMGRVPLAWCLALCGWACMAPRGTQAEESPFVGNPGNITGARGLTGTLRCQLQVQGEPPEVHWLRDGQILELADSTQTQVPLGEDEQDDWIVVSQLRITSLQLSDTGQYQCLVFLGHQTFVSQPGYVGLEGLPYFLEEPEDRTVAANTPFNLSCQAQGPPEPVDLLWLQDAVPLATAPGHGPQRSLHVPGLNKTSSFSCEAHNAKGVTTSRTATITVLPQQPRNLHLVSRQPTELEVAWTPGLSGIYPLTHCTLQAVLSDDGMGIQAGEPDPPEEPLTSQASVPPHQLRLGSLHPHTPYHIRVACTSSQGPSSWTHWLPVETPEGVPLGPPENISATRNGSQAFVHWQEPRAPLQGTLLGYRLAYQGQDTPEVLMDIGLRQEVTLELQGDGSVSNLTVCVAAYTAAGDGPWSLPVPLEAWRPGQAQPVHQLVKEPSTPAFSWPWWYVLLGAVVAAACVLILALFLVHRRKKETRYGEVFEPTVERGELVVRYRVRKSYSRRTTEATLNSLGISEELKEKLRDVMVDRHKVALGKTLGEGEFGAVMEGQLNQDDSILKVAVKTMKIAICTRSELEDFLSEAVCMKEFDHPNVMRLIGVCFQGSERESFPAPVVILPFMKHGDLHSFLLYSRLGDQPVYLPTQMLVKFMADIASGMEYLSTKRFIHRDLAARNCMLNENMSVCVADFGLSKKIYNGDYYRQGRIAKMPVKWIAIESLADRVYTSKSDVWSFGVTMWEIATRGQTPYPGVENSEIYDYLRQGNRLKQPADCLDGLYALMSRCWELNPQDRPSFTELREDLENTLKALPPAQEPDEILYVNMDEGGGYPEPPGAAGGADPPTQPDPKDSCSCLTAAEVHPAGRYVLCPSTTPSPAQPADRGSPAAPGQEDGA
Description: Inhibition of AXL (unknown origin) by FRET assay.

For assay [17], the target named is T1, Macrophage colony-stimulating factor 1 receptor. Description: Inhibition of FMS (unknown origin) by kinase assay.
The test system of assay [18] is SF-268. Description: Growth inhibition of human SF-268 cells by sulforhodamine B assay. In kind it is functional. On the technique in general: In SRB staining, fixed cells bind dye roughly in proportion to their protein.
The target of assay [19] is T5, Tyrosine-protein kinase Lck. Briefly: Inhibition of LCK (unknown origin) at 10 uM using 33P-ATP as substrate by biochemical Hotspot kinase assay relative to control.

T1 sequence (P07333 whole entry): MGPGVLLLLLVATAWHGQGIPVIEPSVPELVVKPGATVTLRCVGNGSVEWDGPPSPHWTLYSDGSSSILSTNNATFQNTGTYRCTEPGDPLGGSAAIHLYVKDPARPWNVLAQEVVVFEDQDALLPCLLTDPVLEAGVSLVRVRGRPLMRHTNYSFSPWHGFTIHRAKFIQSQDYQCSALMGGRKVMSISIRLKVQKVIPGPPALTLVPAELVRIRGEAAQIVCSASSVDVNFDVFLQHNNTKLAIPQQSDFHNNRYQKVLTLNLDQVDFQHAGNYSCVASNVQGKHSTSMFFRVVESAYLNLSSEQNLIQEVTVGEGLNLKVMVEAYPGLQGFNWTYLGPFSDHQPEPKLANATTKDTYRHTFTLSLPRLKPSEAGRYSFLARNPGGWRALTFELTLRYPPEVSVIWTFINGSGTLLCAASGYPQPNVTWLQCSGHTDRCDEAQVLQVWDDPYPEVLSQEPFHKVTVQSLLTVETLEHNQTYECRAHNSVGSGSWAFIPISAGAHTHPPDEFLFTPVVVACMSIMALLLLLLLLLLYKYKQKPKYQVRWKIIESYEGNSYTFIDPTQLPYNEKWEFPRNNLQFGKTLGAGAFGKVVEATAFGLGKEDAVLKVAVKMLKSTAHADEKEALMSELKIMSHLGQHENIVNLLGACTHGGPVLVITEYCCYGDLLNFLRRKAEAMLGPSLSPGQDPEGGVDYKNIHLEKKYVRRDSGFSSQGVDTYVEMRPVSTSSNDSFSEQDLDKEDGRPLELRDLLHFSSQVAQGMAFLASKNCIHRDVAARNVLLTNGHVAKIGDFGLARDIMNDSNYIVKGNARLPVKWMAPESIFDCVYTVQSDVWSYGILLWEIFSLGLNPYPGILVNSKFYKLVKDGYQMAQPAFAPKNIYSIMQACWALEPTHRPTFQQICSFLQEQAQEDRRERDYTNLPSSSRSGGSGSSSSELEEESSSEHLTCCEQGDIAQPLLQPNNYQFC
T2 sequence (P35968 whole entry): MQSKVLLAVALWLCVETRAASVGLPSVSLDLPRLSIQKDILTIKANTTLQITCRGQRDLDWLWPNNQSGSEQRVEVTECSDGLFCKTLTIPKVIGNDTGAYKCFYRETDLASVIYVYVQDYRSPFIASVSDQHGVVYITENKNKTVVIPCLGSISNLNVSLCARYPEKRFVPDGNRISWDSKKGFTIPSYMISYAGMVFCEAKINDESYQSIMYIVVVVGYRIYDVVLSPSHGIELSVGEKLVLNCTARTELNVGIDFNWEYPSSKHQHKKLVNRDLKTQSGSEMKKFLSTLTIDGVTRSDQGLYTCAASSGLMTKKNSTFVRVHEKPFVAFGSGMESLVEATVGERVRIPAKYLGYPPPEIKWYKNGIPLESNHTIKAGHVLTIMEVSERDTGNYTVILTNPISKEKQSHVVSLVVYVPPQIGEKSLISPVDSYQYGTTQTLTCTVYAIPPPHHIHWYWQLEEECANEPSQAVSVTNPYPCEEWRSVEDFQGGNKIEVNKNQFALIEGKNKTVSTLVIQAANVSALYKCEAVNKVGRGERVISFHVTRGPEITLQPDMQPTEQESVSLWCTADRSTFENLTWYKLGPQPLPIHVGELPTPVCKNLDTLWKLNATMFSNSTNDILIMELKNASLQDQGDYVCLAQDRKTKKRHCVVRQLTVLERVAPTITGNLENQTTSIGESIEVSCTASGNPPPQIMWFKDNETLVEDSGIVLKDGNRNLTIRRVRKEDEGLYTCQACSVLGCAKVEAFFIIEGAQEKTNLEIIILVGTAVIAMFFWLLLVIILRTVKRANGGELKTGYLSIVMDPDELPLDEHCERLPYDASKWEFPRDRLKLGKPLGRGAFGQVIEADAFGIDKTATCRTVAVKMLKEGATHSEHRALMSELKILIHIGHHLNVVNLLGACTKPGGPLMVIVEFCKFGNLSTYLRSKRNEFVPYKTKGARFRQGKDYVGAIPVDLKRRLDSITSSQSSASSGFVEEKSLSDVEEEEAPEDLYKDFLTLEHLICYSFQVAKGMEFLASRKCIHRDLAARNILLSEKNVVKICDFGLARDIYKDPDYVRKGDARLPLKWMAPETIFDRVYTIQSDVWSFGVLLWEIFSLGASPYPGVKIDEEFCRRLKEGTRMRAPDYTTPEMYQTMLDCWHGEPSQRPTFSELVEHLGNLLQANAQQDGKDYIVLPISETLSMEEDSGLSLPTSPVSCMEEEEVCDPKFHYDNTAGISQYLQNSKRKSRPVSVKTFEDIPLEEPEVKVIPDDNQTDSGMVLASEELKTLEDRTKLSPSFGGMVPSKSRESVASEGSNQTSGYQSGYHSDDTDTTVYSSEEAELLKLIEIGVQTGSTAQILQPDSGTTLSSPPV

The term IC50 denotes the concentration that inhibits the measured activity by half. Regarding `Nc1nccc2c1ccn2-c1cccc(NC(=O)c2ccc(N3CCOCC3)c(C(F)(F)F)c2)c1`, the IC50 in assay [1] was 30 nM.
Turning to `COc1nc(F)ccc1CNc1ccc(Cc2c[nH]c3ncc(C)cc23)c(F)n1`, the IC50 in assay [2] turned out to be 1100 nM; in [3], 1000 nM; in assay [4], 860 nM; in assay [5] it was 390 nM; in assay [6], 16 nM.
Turning to `FC(F)(F)c1ccc(CNc2ccc(Cc3c[nH]c4ncc(Cl)cc34)cn2)cn1` [PEXIDARTINIB], the IC50 in assay [7] worked out at 880 nM; in assay [8] it was 860 nM; in assay [9] it was 350 nM; in assay [10] it was 890 nM; in [11] it was 20 nM.
Consider `COc1ccc(COc2ncc(Oc3ccnc(C(=O)N[11CH3])c3)cc2OC)cc1`, for which the IC50 in [1] came out at 12 nM.
In turn, `CC1(C)CC=C(c2nc(C3CC(C)(C)OC(C)(C)C3)ccc2NC(=O)c2nc(C#N)c[nH]2)CC1` [EDICOTINIB] came in with an IC50 in assay [12] of 190 nM.
Broadly, the inhibition is the drop in the measured response relative to a control, in per cent. Low values mean a response near the control, high ones a response far below the control. With `COc1ccc(Oc2nc(Nc3ccc(N4CCCCC4)nc3)ncc2NC(=O)c2cc(OC)cc(OC)c2)cc1`, the inhibition in [13] came out at 14.5%.
Regarding `Cc1nc2[nH]cc(Cc3ccc(NCc4ccc(C(F)(F)F)nc4)nc3)c2c(C)c1O`, the inhibition in assay [14] was found to be 8.12%. Moreover, the IC50 in assay [1] came to 57800 nM; in assay [15], 1630 nM.
Compound `CNC(=O)c1cc2c(Oc3ccc(NC(=S)NC(=O)Cc4ccccc4)cc3F)ccnc2cc1OC` [TAS-115] yielded an IC50 in [16] of 15 nM.
By GI50 is commonly meant the concentration that inhibits growth by half. In assay [17], `COc1cc(NC(=O)Nc2cnc(Nc3ccc(N4CCOCC4)cc3)nc2Oc2cccc(OC)c2)cc(OC)c1` gave an IC50 of 15 nM. The compound also gave a concentration for 50% growth inhibition (GI50) in assay [18] of 50300 nM.
Take `CNC(=O)c1nccc2cc(-c3cncc(Nc4ccc(OC5CC5)nc4)c3C)[nH]c12`: in assay [15], the half-inhibitory concentration (IC50) stood at 1.13 nM.
For the compound `COc1ccc(Oc2nc(Nc3ccc(N4CCOCC4)cc3)ncc2NC(=O)c2cccc(SC)c2)cc1`, the inhibition in assay [19] came out at 87.7%.
